This is an account of results in US9505750B2, “5-aminocyclylmethyl-oxazolidin-2-one derivatives” (priority 2007, dated 2016).

This test has as its system M. catarrhalis A894. As to the kind of experiment: MIC determination by microdilution in cation-adjusted Mueller-Hinton Broth (NCCLS). In kind it is cell-based. The note with it: Moraxella catarrhalis, pH 7.2-7.3. The procedure:
These assays have been performed following the description given in “Methods for dilution Antimicrobial Susceptibility Tests for Bacteria that Grow Aerobically, 4th ed.; Approved standard: NCCLS Document M7-A4; National Committee for Clinical Laboratory Standards: Villanova, Pa., USA, 1997”. Minimal inhibitory concentrations (MICs; mg/l) were determined in cation-adjusted Mueller-Hinton Broth (BBL) by a microdilution method following NCCLS guidelines (National Committee for Clinical Laboratory Standards. Methods for Dilution Antimicrobial Susceptibility). The pH of the test medium was 7.2-7.3. All Example compounds were tested against several Gram-positive and Gram-negative bacteria.

Converted amounts (≈) assume the structure as drawn. Bounds are passed on as bounds.

`COc1ccc2nccc(NC3CCN(C[C@@H]4CN(c5ccc6c(c5)NC(=O)CO6)C(=O)O4)CC3)c2n1` [Example 35, 6-{(R)-5-[4-(6-methoxy-[1,5]naphthyridin-4-ylamino)-piperidin-1-ylmethyl]-2-oxo-oxazolidin-3-yl}-4H-benzo[1,4]oxazin-3-one] came in with an MIC of at most 0.031 µg/mL. Then `COc1ccc2nccc(/C=C/C3CCN(C[C@@H]4CN(c5ccc6c(c5)NC(=O)CS6)C(=O)O4)C3)c2n1` (mixture of isomers) [Example 9, 6-((R)-5-{(RS)-3-[(E)-2-(6-methoxy-[1,5]naphthyridin-4-yl)-vinyl]-pyrrolidin-1-ylmethyl}-2-oxo-oxazolidin-3-yl)-4H-benzo[1,4]thiazin-3-one], with at most 0.031 µg/mL; and `COc1ccc2ncnc(O[C@H]3C[C@@H](CN=[N+]=[N-])N(C[C@@H]4CN(c5ccc6c(c5)NC(=O)CS6)C(=O)O4)C3)c2c1` [Example 6, 6-{(R)-5-[(2S,4S)-2-azidomethyl-4-(6-methoxy-quinazolin-4-yloxy)-pyrrolidin-1-ylmethyl]-2-oxo-oxazolidin-3-yl}-4H-benzo[1,4]thiazin-3-one], with at most 0.031 µg/mL.

`COc1cnc2cccc(C=C3CCN(C[C@@H]4CN(c5ccc6c(c5)NC(=O)CS6)C(=O)O4)CC3)c2n1` [Example 12, 6-{(R)-5-[4-(3-methoxy-quinoxalin-5-ylmethylene)-piperidin-1-ylmethyl]-2-oxo-oxazolidin-3-yl}-4H-benzo[1,4]thiazin-3-one] registered an MIC of at most 0.031 µg/mL. The value for `COc1ccc2ncnc(OC3CCN(C[C@@H]4CN(c5ccc6c(c5)NC(=O)CS6)C(=O)O4)CC3)c2c1` [Example 20, 6-{(R)-5-[4-(6-methoxy-quinazolin-4-yloxy)-piperidin-1-ylmethyl]-2-oxo-oxazolidin-3-yl}-4H-benzo[1,4]thiazin-3-one] was at most 0.031 µg/mL. `COc1ccc2ncnc(O[C@H]3C[C@@H](CN)N(C[C@@H]4CN(c5ccc6c(c5)NC(=O)CS6)C(=O)O4)C3)c2c1` [Example 15, 6-{(R)-5-[(2S,4S)-2-aminomethyl-4-(6-methoxy-quinazolin-4-yloxy)-pyrrolidin-1-ylmethyl]-2-oxo-oxazolidin-3-yl}-4H-benzo[1,4]thiazin-3-one]: the MIC is at most 0.031 µg/mL. Then `COc1ccc2ncnc(O[C@H]3C[C@@H](CNC(C)=O)N(C[C@@H]4CN(c5ccc6c(c5)NC(=O)CS6)C(=O)O4)C3)c2c1` [Example 17, N-{(2S,4S)-4-(6-methoxy-quinazolin-4-yloxy)-1-[(R)-2-oxo-3-(3-oxo-3,4-dihydro-2H-benzo[1,4]thiazin-6-yl)-oxazolidin-5-ylmethyl]-pyrrolidin-2-ylmethyl}-acetamide], with 0.25 µg/mL (≈ 0.432 µM); and `COc1ccc2ncnc(O[C@H]3C[C@@H](CO)N(C[C@@H]4CN(c5ccc6c(c5)NC(=O)CS6)C(=O)O4)C3)c2c1` [Example 5, 6-{(R)-5-[(2S,4S)-2-hydroxymethyl-4-(6-methoxy-quinazolin-4-yloxy)-pyrrolidin-1-ylmethyl]-2-oxo-oxazolidin-3-yl}-4H-benzo[1,4]thiazin-3-one], with at most 0.031 µg/mL; and `COc1ccc2nccc(NC3CN(C[C@@H]4CN(c5ccc6c(c5)NC(=O)CS6)C(=O)O4)C3)c2n1` [Example 36, 6-{(R)-5-[3-(6-methoxy-[1,5]naphthyridin-4-ylamino)-azetidin-1-ylmethyl]-2-oxo-oxazolidin-3-yl}-4H-benzo[1,4]thiazin-3-one], with at most 0.031 µg/mL.

For `COc1ccc2nccc(NC3CN(C[C@@H]4CN(c5ccc6c(c5)OCCO6)C(=O)O4)C3)c2n1` [Example 42, (R)-3-(2,3-dihydro-benzo[1,4]dioxin-6-yl)-5-[3-(6-methoxy-[1,5]naphthyridin-4-ylamino)-azetidin-1-ylmethyl]-oxazolidin-2-one], the MIC is at most 0.031 µg/mL. Then `COc1ccc2ncc(F)c(NC3CN(C[C@@H]4CN(c5ccc6c(c5)NC(=O)CO6)C(=O)O4)C3)c2n1` [Example 23, 6-{(R)-5-[3-(3-fluoro-6-methoxy-[1,5]naphthyridin-4-ylamino)-azetidin-1-ylmethyl]-2-oxo-oxazolidin-3-yl}-4H-benzo[1,4]oxazin-3-one], with at most 0.031 µg/mL.

Broadly, the MIC is the least concentration at which growth counts as inhibited. A high value points to weaker potency.
